Assay results: patent US6544787B1, “Non-myeloablative/lymphoablative conditioning regimen to induce patient anti-donor unresponsiveness in stem cell transplantation” (Hadash Medical Research Services and Development Ltd., priority 1996, dated 2003)
“And” between values parts separate entries of the source, which are not always exact repeats. Identical values can stand only once.

Columns and labels:
[1] = tested on: cultured erythroid colonies; assay: β-globin gene mutation assay on cultured erythroid colonies +/- Epo; assay type: cell-based, human; conditions: in the presence of Epo; 7% without Epo
Procedure: To clarify the unusual clinical picture of this patient, a β-globin gene mutation assay was performed on cultured erythroid colonies, +/− erythropoietin (Epo). […] Donor cells without Epo amounted to 7%, similar to their percentage in peripheral blood lymphocytes and nucleated BMC, rising to 16% in the presence of Epo.

[2] = tested on: human patients with malignant and non-malignant pathogenic cell diseases; assay type: in vivo; conditions: the other 8 patients who developed GVHD; starting with 2 mg/kg
[3] = tested on: patient with ovarian cancer stage IIIc; assay: CA-125 during prior chemotherapy, case history; assay type: in vivo, human; set-up: unit not given here

Compound: erythropoietin [Epo]
- Donor cells [1]: 16%

Compound: C[C@]12C=CC(=O)C=C1CC[C@@H]1[C@@H]2C(=O)C[C@@]2(C)[C@H]1CC[C@]2(O)C(=O)CO [prednisone]
- response of GVHD to treatment [2]: responded

Compound: N.N.[Cl][Pt][Cl] [cisplatinum]
- CA-125 ([3]; several courses 20 mg/d x3d q3w): 328 and 439.6

Compound: CC(=O)O[C@H]1C(=O)[C@@]2(C)[C@H]([C@H](OC(=O)c3ccccc3)[C@]3(O)C[C@H](OC(=O)[C@H](O)[C@@H](NC(=O)c4ccccc4)c4ccccc4)C(C)=C1C3(C)C)[C@]1(OC(C)=O)CO[C@@H]1C[C@@H]2O [Taxol]
- CA-125 ([3]; 175 mg/m^2, after 3 cycles, from 600): 27
- CA-125 ([3]; after 10 cycles): ~22
- CA-125 ([3]; total of 28 courses): 152
